One data set concerns BC. Briefly: Cytotoxicity against human BC cells up to 38 uM by SRB assay. Type of data set: functional, cell-based. A general note: Sulforhodamine B stains cellular protein and so reports cell mass.
Another data set relates to Plasmodium falciparum. Put plainly: Antimalarial activity against Plasmodium falciparum K1 infected human A+ erythrocytes by [3H]hypoxanthine uptake. Type of data set: functional, organism-based.
In another data set the test system is KB. Put plainly: Cytotoxicity against human KB cells up to 38 uM by SRB assay. In kind it is functional, cell-based.
For the next data set, the system named is NCI-H187. Put plainly: Cytotoxicity against human NCI-H187 cells up to 38 uM by SRB assay. In kind it is functional, cell-based.
The next data set concerns Vero. Briefly: Cytotoxicity against african green monkey Vero cells by SRB assay. In kind it is cell-based. Conditions: chlorocebus sabaeus.

Each structure is given as a SMILES string. Activity calls are given as the source filed them. No cut-off for these calls is given here.

Broadly, the IC50 is the midpoint of a concentration-inhibition curve. In the case of `CC[C@@H](C)[C@H](N)C(=O)N(C)[C@H](Cc1ccccc1)C(=O)N[C@@H](CC(C)C)C(=O)Nc1ccccc1C(=O)O` [HIRSUTELLIC ACID A], the outcome in the data set with BC, in the data set with KB and in the data set with NCI-H187 was inactive. In the data set with Plasmodium falciparum, this compound gave an IC50 of 8 µM. Also, the Activity entry in the data set on Vero is “Non-toxic”.

These data come from ChEMBL document CHEMBL1157341, “An antimalarial tetrapeptide from the entomopathogenic fungus Hirsutella sp. BCC 1528” (J Nat Prod, 2006).
